The assay deals with human IDO1 (Homo sapiens, UniProt P14902). The assay can be described thus: Assessment of human IDO-1 inhibitory activity in HEK cells (human IDO1/HEK293 cells, kynurenine read-out with Ehrlich reagent, absorbance 490 nm). The note with it: HEK Human IDO-1 cellular assay. The arrangement: expressed in transfected cells. In kind it is cell-based. The method in brief:
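Kynurenine output from stably IDO1-transfected HEK293 cells (10,000/well, phenol red-free RPMI, 10% FBS) after 20 h compound exposure at 37 °C. The reaction was stopped with 0.2% TCA and heated 30 min at 50 °C, then the supernatant was mixed with Ehrlich reagent and read at 490 nm. IC50 was set against DMSO and a 500 nM reference standard as 0 and 100% inhibition.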

Bounds are passed on as bounds.

human IDO1, sequence (P14902 whole entry): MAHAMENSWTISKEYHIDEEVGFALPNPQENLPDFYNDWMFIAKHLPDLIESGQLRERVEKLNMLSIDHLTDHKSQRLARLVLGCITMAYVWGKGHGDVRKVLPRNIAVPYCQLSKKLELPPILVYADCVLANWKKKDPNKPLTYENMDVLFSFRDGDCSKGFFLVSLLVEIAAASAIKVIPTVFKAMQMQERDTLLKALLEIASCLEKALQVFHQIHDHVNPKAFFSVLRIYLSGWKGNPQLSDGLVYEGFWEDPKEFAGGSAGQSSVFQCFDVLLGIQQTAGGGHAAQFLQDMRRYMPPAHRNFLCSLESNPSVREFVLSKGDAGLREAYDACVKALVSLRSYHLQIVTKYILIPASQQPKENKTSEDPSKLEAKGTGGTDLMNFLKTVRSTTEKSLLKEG

A word on the IC50: it is the concentration that inhibits the measured activity by half. As to `COCC(CC(=O)O)c1ccc(N(CC2CC2)C2CCOCC2)c(Nc2ccc(Cl)c(OCC3CC3)c2)c1` (single isomer, unassigned) [Example 683, 3-(3-((4-chloro-3-(cyclopropylmethoxy)phenyl)amino)-4-((cyclopropylmethyl) (tetrahydro-2H-pyran-4-yl)amino)phenyl)-4-methoxybutanoic acid], the IC50 was over 50 nM. In the case of `COCC(CC(=O)O)c1ccc(N(CC2CC2)C2CCOCC2)c(Nc2ccc(Cl)c(OCC(F)F)c2)c1` (single isomer, unassigned) [Example 684, 3-(3-((4-chloro-3-(2,2-difluoroethoxy)phenyl)amino)-4-((cyclopropylmethyl) (tetrahydro-2H-pyran-4-yl)amino)phenyl)-4-methoxybutanoic acid], the IC50 was under 50 nM. In the case of `COCC(CC(=O)O)c1ccc(N(CC2CC2)C2CCOCC2)c(Nc2ccc(C#N)c(C)c2)c1` (single isomer, unassigned) [Example 686, 3-(3-((4-cyano-3-methylphenyl)amino)-4-((cyclopropylmethyl) (tetrahydro-2H-pyran-4-yl)amino)phenyl)-4-methoxybutanoic acid], the IC50 was under 5 nM. The value for `COCC(CC(=O)O)c1ccc(N(CC2CC2)C2CCOCC2)c(Nc2ccc(C#N)cc2)c1` (single isomer, unassigned) [Example 687, 3-(3-((4-cyanophenyl)amino)-4-((cyclopropylmethyl) (tetrahydro-2H-pyran-4-yl)amino)phenyl)-4-methoxybutanoic acid] was under 50 nM; that for `COCC(CC(=O)O)c1ccc(N(CC2CC2)C2CCOCC2)c(Nc2ccc(C(N)=O)nc2)c1` (single isomer, unassigned) [Example 688, 3-(3-((6-carbamoylpyridin-3-yl)amino)-4-((cyclopropylmethyl) (tetrahydro-2H-pyran-4-yl)amino)phenyl)-4-methoxybutanoic acid] was over 50 nM; that for `COCC(CC(=O)O)c1ccc(N(CC2CC2)C2CCOCC2)c(Nc2ccc3nc(C)sc3c2)c1` (single isomer, unassigned) [Example 689, 3-(4-((cyclopropylmethyl) (tetrahydro-2H-pyran-4-yl)amino)-3-((2-methylbenzo[d]thiazol-6-yl)amino)phenyl)-4-methoxybutanoic acid] was over 50 nM. Turning to `COCC(CC(=O)O)c1ccc(N(CC2CC2)C2CCOCC2)c(Nc2ccc(Cl)cc2)c1` (single isomer, unassigned) [Example 690, 3-(3-((4-chlorophenyl)amino)-4-((cyclopropylmethyl) (tetrahydro-2H-pyran-4-yl)amino)phenyl)-4-methoxybutanoic acid], the IC50 was over 50 nM. As for `COCC(CC(=O)O)c1ccc(N(CC2CC2)C2CCOCC2)c(Nc2ccc(C#N)cc2)c1` (single isomer, unassigned) [Example 691, 3-(3-((4-cyanophenyl)amino)-4-((cyclopropylmethyl) (tetrahydro-2H-pyran-4-yl)amino)phenyl)-4-methoxybutanoic acid], the IC50 was under 5 nM.

With `COCC(CC(=O)O)c1ccc(N(CC2CC2)C2CCOCC2)c(Nc2ccc(C#N)c(C)c2)c1` (single isomer, unassigned) [Example 692, 3-(3-((4-cyano-3-methylphenyl)amino)-4-((cyclopropylmethyl) (tetrahydro-2H-pyran-4-yl)amino)phenyl)-4-methoxybutanoic acid], the IC50 was under 50 nM. As to `CCC(CC(=O)O)c1ccc(N(CC2CC2)C2CCOCC2)c(NC(=O)Nc2ccc(C)cc2)c1` (single isomer, unassigned) [Example 695, 3-(4-((Cyclopropylmethyl)(tetrahydro-2H-pyran-4-yl)amino)-3-(3-(p-tolyl)ureido)phenyl)pentanoic acid], the concentration for half-maximal inhibition (IC50) was under 50 nM.

As for `CCC(CC(=O)O)c1ccc(N(CC2CC2)C2CCOCC2)c(NC(=O)Nc2ccc(Cl)cc2F)c1` (single isomer, unassigned) [Example 696, 3-(3-(3-(4-Chloro-2-fluorophenyl)ureido)-4-((cyclopropylmethyl)(tetrahydro-2H-pyran-4-yl)amino)phenyl)pentanoic acid], the IC50 was under 5 nM. The result for `CCC(CC(=O)O)c1ccc(N(CC2CC2)C2CCOCC2)c(NC(=O)Nc2cc(C)on2)c1` (single isomer, unassigned) [Example 697, 3-(4-((Cyclopropylmethyl)(tetrahydro-2H-pyran-4-yl)amino)-3-(3-(5-methylisoxazol-3-yl)ureido)phenyl)pentanoic acid] reads over 50 nM; that for `CCC(CC(=O)O)c1ccc(N(CC2CC2)C2CCOCC2)c(Nc2ccc3nc(C)sc3c2)c1` (single isomer, unassigned) [Example 701, 3-(4-((Cyclopropylmethyl)(tetrahydro-2H-pyran-4-yl)amino)-3-((2-methylbenzo[d]thiazol-6-yl)amino)phenyl)pentanoic acid], under 50 nM. The value for `CCC(CC(=O)O)c1ccc(N(CC2CC2)C2CCOCC2)c(Nc2ccc(Cl)cc2)c1` (single isomer, unassigned) [Example 702, 3-(3-((4-chlorophenyl)amino)-4-((cyclopropylmethyl) (tetrahydro-2H-pyran-4-yl)amino)phenyl)pentanoic acid] was under 5 nM; that for `CCC(CC(=O)O)c1ccc(N(CC2CC2)C2CCOCC2)c(Nc2cnc(OC)nc2)c1` (single isomer, unassigned) [Example 703, 3-(4-((cyclopropylmethyl) (tetrahydro-2H-pyran-4-yl)amino)-3-((2-methoxypyrimidin-5-yl)amino)phenyl)pentanoic acid] was under 5 nM. With `CCC(CC(=O)O)c1ccc(N(CC2CC2)C2CCOCC2)c(Nc2ccc3c(c2)OC(F)(F)O3)c1` (single isomer, unassigned) [Example 704, 3-(4-((cyclopropylmethyl) (tetrahydro-2H-pyran-4-yl)amino)-3-((2,2-difluorobenzo[d][1,3]dioxol-5-yl)amino)phenyl) pentanoic acid], the 50% inhibitory concentration (IC50) was under 50 nM.

Turning to `CCOc1ncc(Nc2cc(C(CC)CC(=O)O)ccc2N(CC2CC2)C2CCOCC2)cn1` (single isomer, unassigned) [Example 705, 3-(4-((cyclopropylmethyl) (tetrahydro-2H-pyran-4-yl)amino)-3-((2-ethoxypyrimidin-5-yl)amino)phenyl)pentanoic acid], the IC50 was under 5 nM. As to `CCC(CC(=O)O)c1ccc(N(CC2CC2)C2CCOCC2)c(Nc2ccc(C#N)cc2)c1` (single isomer, unassigned) [Example 706, 3-(3-((4-cyanophenyl)amino)-4-((cyclopropylmethyl) (tetrahydro-2H-pyran-4-yl)amino)phenyl)pentanoic acid], the IC50 was under 5 nM.

Regarding `CCC(CC(=O)O)c1ccc(N(CC2CC2)C(C)C)c(Nc2ccc(Cl)cc2)c1` (single isomer, unassigned) [Example 714, 3-(3-((4-chlorophenyl)amino)-4-((cyclopropylmethyl) (isopropyl)amino)phenyl) pentanoic acid], the IC50 was under 5 nM. Regarding `CCC(CC(=O)O)c1ccc(N(CC2CC2)C(C)C)c(Nc2ccc3c(c2)OC(F)(F)O3)c1` (single isomer, unassigned) [Example 715, 3-(4-((cyclopropylmethyl) (isopropyl)amino)-3-((2,2-difluorobenzo[d][1,3]dioxol-5-yl)amino)phenyl) pentanoic acid], the half-inhibitory concentration (IC50) is under 50 nM.

`CCC(CC(=O)O)c1ccc(N(CC2CC2)C(C)C)c(Nc2ccc3nc(C)sc3c2)c1` (single isomer, unassigned) [Example 716, 3-(4-((Cyclopropylmethyl)(isopropyl)amino)-3-((2-methylbenzo[d]thiazol-6-yl)amino)phenyl)pentanoic acid]: the IC50 was over 50 nM. The result for `CCOc1ncc(Nc2cc(C(CC)CC(=O)O)ccc2N(CC2CC2)C(C)C)cn1` (single isomer, unassigned) [Example 718, 3-(4-((cyclopropylmethyl) (isopropyl)amino)-3-((2-ethoxypyrimidin-5-yl)amino)phenyl)pentanoic acid] reads under 50 nM; that for `CCC(CC(=O)O)c1ccc(N(CC(C)C)C(C)C)c(Nc2ccc(Cl)cc2)c1` (single isomer, unassigned) [Example 727, 3-(3-((4-Chlorophenyl)amino)-4-(isobutyl(isopropyl)amino)phenyl)pentanoic acid], under 5 nM.

In the case of `CCC(CC(=O)O)c1ccc(N(CC(C)C)C(C)C)c(Nc2ccc3nc(C)sc3c2)c1` (single isomer, unassigned) [Example 729, 3-(4-(isobutyl(isopropyl)amino)-3-((2-methylbenzo[d]thiazol-6-yl)amino)phenyl)pentanoic acid], the IC50 is over 50 nM.

For the compound `CC(CC(=O)O)c1ccc(N2C[C@@H](C)O[C@@H](C)C2)c(Nc2ccc(C#N)cc2)c1` (single isomer, unassigned) [Example 737], the IC50 is over 50 nM. In the case of `CC(CC(=O)O)c1ccc(N2C[C@@H](C)O[C@@H](C)C2)c(Nc2ccc(F)cc2)c1` (single isomer, unassigned) [Example 738], the IC50 is over 50 nM. For `CC(CC(=O)O)c1ccc(N2C[C@@H](C)O[C@@H](C)C2)c(Nc2ccc(Cl)cc2)c1` (single isomer, unassigned) [Example 739], the IC50 was over 50 nM. For `CCc1ccc(Nc2cc(C(C)CC(=O)O)ccc2N2C[C@@H](C)O[C@@H](C)C2)cc1` (single isomer, unassigned) [Example 740], the IC50 was over 50 nM. With `COc1ncc(Nc2cc(C(C)CC(=O)O)ccc2N2C[C@@H](C)O[C@@H](C)C2)cn1` (single isomer, unassigned) [Example 741], the half-inhibitory concentration (IC50) is over 50 nM. Take `CC(CC(=O)O)c1ccc(N2C[C@@H](C)O[C@@H](C)C2)c(Nc2ccc(Cl)cc2)c1` (single isomer, unassigned) [Example 745]: the IC50 is under 50 nM.

As to `CC[C@@H](CC(=O)O)c1ccc(N2C[C@@H](C)O[C@@H](C)C2)c(NC(=O)Nc2ccc(C)cc2)c1` (single isomer, unassigned) [Example 754], the IC50 was over 50 nM.

(Values after patent US9790169B2, “IDO inhibitors” (BRISTOL-MYERS SQUIBB COMPANY, priority 2015, dated 2017).)
